Data reported in patent publication US11285135B2 (AMGEN INC., priority 2016, dated 2022).

target: GDP-bound protein (aa 1-169), containing both G12C and C118A amino acid substitutions (Homo sapiens, UniProt P01116, C118A/G12C); assay: Coupled Nucleotide Exchange Assay (SOS-mediated nucleotide exchange, AlphaScreen); assay type: biochemical; conditions: 2 hours compound pre-incubation
Experimental: Coupled Nucleotide Exchange Assay: Purified GDP-bound […] protein (aa 1-169), containing both G12C and C118A amino acid substitutions and an N-terminal His-tag, was pre-incubated with a compound dose-response titration for 2 hours in assay buffer (25 mM HEPES pH 7.4, 10 mM MgCl2, and 0.01% Triton X-100). Following compound pre-incubation, purified SOS protein (aa 564-1049) and GTP (Roche 10106399001) were added to the assay wells and incubated for an additional hour. […] The assay plates were then read on a PerkinElmer EnVision Multilabel Reader, using AlphaScreen® technology, and data were analyzed using a 4-parameter logistic model to calculate IC50 values.

Sequence of GDP-bound protein (aa 1-169), containing both G12C and C118A amino acid substitutions (P01116 1-169 isoform P01116-2 G12C/C118A): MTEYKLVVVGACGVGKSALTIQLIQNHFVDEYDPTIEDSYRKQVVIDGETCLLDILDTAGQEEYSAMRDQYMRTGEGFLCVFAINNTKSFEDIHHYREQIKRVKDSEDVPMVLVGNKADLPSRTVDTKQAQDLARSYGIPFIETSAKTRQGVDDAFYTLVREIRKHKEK

SMILES | Coupled exchange IC50 [µM]
C=CC(=O)N1CCN(c2snc3c(F)c(-c4cc(OC)cc5cnn(C)c45)c(Cl)cc23)CC1 [Example 19-1, 1-(4-(5-chloro-7-fluoro-6-(5-methoxy-1-methyl-1H-indazol-7-yl)-2,1-benzothiazol-3-yl)-1-piperazinyl)-2-propen-1-one] | 15.2
C=CC(=O)N1CCN(c2nnc(C(C)c3ccccc3)c3cc(-c4c(O)cccc4F)c(Cl)cc23)CC1 (racemic) [Example 28, 1-(4-(7-chloro-6-(2-fluoro-6-hydroxyphenyl)-4-((1R)-1-phenylethyl)-1-phthalazinyl)-1-piperazinyl)-2-propen-1-one and 1-(4-(7-chloro-6-(2-fluoro-6-hydroxyphenyl)-4-((1S)-1-phenylethyl)-1-phthalazinyl)-1-piperazinyl)-2-propen-1-one] | 8.17
C=CC(=O)N1CCC[C@@H](Nc2snc3c(F)c(Br)c(Cl)cc23)C1 [Example 4-8, 1-((3R)-3-((6-bromo-5-chloro-7-fluoro-2,1-benzothiazol-3-yl)amino)-1-piperidinyl)-2-propen-1-one] | 177
C=CC(=O)N1CCN(c2snc3cc(-c4c(F)cccc4OC)c(Cl)cc23)CC1 [Example 1-5, 1-(4-(5-chloro-6-(2-fluoro-6-methoxyphenyl)-2,1-benzothiazol-3-yl)-1-piperazinyl)-2-propen-1-one] | 6.66
C=CC(=O)N1CCN(c2nnc(Cc3ccccc3)c3cc(Cl)c(Cl)cc23)CC1 [Example 34, 1-(4-Acryloyl-1-piperazinyl)-4-benzyl-6,7-dichlorophthalazine] | 34.2
C=CC(=O)N1CCN(c2nnc(OC)c3cc(Cl)c(-c4c(O)cccc4F)cc23)CC1 (single isomer, unassigned) [Example 33, 2-(4-(4-acryloyl-1-piperazinyl)-7-chloro-1-methoxy-6-phthalazinyl)-3-fluorophenol] | 103
C=CC(=O)N1CCN(c2snc3nc(-c4c(F)cccc4OC)c(Cl)cc23)C(C)C1 (racemic) [Example 2-2, 1-(4-(5-chloro-6-(2-fluoro-6-methoxyphenyl)[1,2]thiazolo[3,4-b]pyridin-3-yl)-3-methyl-1-piperazinyl)-2-propen-1-one] | 12.7
COc1cc(-c2c(Cl)cc3c(N4CCN(C(=O)/C=C/CN(C)C)CC4)snc3c2F)c2ccccc2c1 [Example 17-1, (2E)-1-(4-(5-Chloro-7-fluoro-6-(3-methoxy-1-naphthalenyl)-2,1-benzothiazol-3-yl)-1-piperazinyl)-4-(dimethylamino)-2-buten-1-one] | 20.6
C=CC(=O)N[C@@H]1CN(c2snc3c(F)c(-c4cc(O)cc5ccccc45)c(Cl)cc23)[C@@H]1C (racemic) [Example 1-9, N-(1-(5-chloro-7-fluoro-6-(3-hydroxy-1-naphthalenyl)-2,1-benzothiazol-3-yl)-2-methyl-3-azetidinyl)-2-propenamide] | 5.92
C=CC(=O)N1CC2(C1)CN(c1snc3c(F)c(Br)c(Cl)cc13)C2 [Example 4-2, 1-(6-(6-bromo-5-chloro-7-fluoro-2,1-benzothiazol-3-yl)-2,6-diazaspiro[3.3]hept-2-yl)-2-propen-1-one] | >250
C=CC(=O)N1CCN(c2nnc(N3CCCCC3)c3cc(-c4c(O)cccc4F)c(Cl)cc23)CC1 [Example 15, 1-(4-(7-Chloro-6-(2-fluoro-6-hydroxyphenyl)-4-(1-piperidinyl)-1-phthalazinyl)-1-piperazinyl)-2-propen-1-one] | 2.56
C=CC(=O)N1CCN(c2nnc(C3CCCC3)c3cc(-c4c(O)cccc4F)c(Cl)cc23)CC1 [Example 14, 1-(4-(7-Chloro-4-cyclopentyl-6-(2-fluoro-6-hydroxyphenyl)-1-phthalazinyl)-1-piperazinyl)-2-propen-1-one] | 2.69
